Test results taken from US12616759B2, “Uses of labeled HSP90 inhibitors” (Sloan-Kettering Institute for Cancer Research, priority 2011, dated 2026).
Read-outs that look alike come from different tables or passages of the source.

Columns and labels:
[1] = test system: patient tumors; assay: [^124I]-PU-H71 PET/CT in cancer patients, tumor exposure to PU-H71; settings: for tumor AUC: two weeks; for tumor AUC0-48 h: paratracheal node
[2] = test system: FL5.12 mAKT-transfected cells; assay: apoptosis in mAKT-transfected FL5.12 cells; assay type: cell-based
Description: FL5.12 was derived as an interleukin-3 (IL-3)-dependent cell line with a functional JAK/STAT pathway and it has characteristic features of an early lymphocytic progenitor. Both the parental cells and the transfected cells express moderate-levels of active AKT and STAT5, as evidenced by AKT phosphorylation on Ser473 and STAT5 phosphorylation on Tyr694, respectively. The level of p-STAT5 but not p-AKT is dependent on the presence of IL-3. Introduction of a constitutively activated, myristoylated form of AKT (mAKT) under the control of a doxycycline (DOX)-inducible promoter further allows for the regulation of p-AKT levels in these cells. All together, these cells are a good isogenic model to evaluate the dependence of HSP90 inhibitor apoptotic sensitivity on activated AKT and STAT5-pathways.
Cells: Kasumi-1, SKNO-1, MOLM-13, MO-91, HEL, HL-60, THP-1, MV4-11 were grown in RPMI media supplemented with 10 mM HEPES, 4.5 g/L glucose, 1.5 g/L sodium bicarbonate, 1 mM sodium pyruvate, 10% FBS, and 1% penicillin/streptomycin. The stable transfectants of FL5.12 were previously described (18-Karnauskas 2003). In brief, for the generation of FL5.mAKT the myristylated AKT was cloned in the doxycycline inducible vector pRevTRE (Clontech) (this clone is designated mAKT). As a control, cell were transfected with vector alone (this clone is designated Vector). For generation of FL5.mAkt.Bcl-xL, the human Bcl-xL cDNA was cloned into the EcoRI site of the pBabePuro vector, and transfected into FL5.mAkt3 as described (18) (this clone is designated mAKT.Bcl-xL). These lines were cultured as described previously using DME-HG media supplemented with 10 mM HEPES, 10% FBS media containing 1 mg/ml Geneticin (G418) (Sigma #G9516) and 1 or 2 ng/mL of IL-3 (RD Systems #403 ML).
(§1) Apoptosis Assay: Cells were treated for 24, 48 or 72 h with vehicle (DMSO) or inhibitors as indicated. Following staining with Acridine Orange and Ethidium Bromide (1:1 mix of 100 µg/ml), cells were visualized with a fluorescent microscope (Zeiss Axiovert 40 CFL) and counted. Percentage of apoptotic cells was determined from 200-300 cells counted in each group. The percentage of apoptotic cells was calculated as: % Apoptotic cells=(total number of cells with apoptotic nuclei/total number of cells counted)×100.
Western blot: Cells were grown to 60-70% confluence and treated with inhibitor or vehicle for the indicated times. Protein lysates were prepared in 50 mM Tris pH 7.4, 150 mM NaCl and 1% NP-40 lysis buffer. Protein concentrations were measured using the BCA kit (Pierce) according to the manufacturer's instructions. Protein lysates (10-100 μg) were resolved by SDS-PAGE, transferred onto nitrocellulose membrane and incubated with the indicated primary antibodies. […]

[3] = target: 359 kinases; assay: scanMAX kinase screen (Ambit); assay type: binding; settings: 10 μM
[4] = test system: MDA-MB-468 cells; assay: MDA-MB-468 and other breast cancer cells in vitro: growth inhibition, client depletion, apoptosis
[5] = test system: tumor HSP90; settings: for available HSP90 tumor sites occupied: 24 h
[6] = test system: caspase-3,7; assay: caspase 3,7 activation assay; assay type: cell-based
Experimental: Caspase 3,7 Activation Assay: Cells were plated and treated as described in the growth inhibition assay section. Following a 24 h or 48 h exposure of cells to Hsp90 inhibitors, 100 μL buffer containing 10 mM Hepes, pH 7.5, 2 mM EDTA, 0.1% CHAPS, 0.1 mg/mL PMSF, Complete Protease Inhibitor mix (#1697498; Roche), and the caspase substrate Z-DEVD-R110 (#R22120; Molecular Probes) at 25 μM was added to each well. Plates were placed on an orbital shaker to promote cell lysis and reaction. The fluorescence signal of each well was measured in an Analyst GT (Molecular Dev ices) microplate reader (excitation 485 nm; emission at 530 nm). The percentage increase in caspase-3,7 activity was calculated by comparison of the fluorescence reading obtained from treated versus control cells. All experimental data were analyzed using SOFTmax Pro 4.3.1 and plotted using Prism 4.0 (Graphpad Software Inc., San Diego, CA).

[7] = test system: AML cell lines; assay: apoptosis in AML cell lines, acridine orange/ethidium bromide; assay type: cell-based, human
Experimental: as §1

[8] = test system: HSP90; assay: fluorescence polarization HSP90 binding assay using SKBr3 cancer cell lysate
[9] = PU-H71 tumor concentration by LC-MS/MS; assay type: in vivo, mice; settings: mouse, tumor (MDA-MB-468), read-out: actual tumor concentration by LC-MS/MS; for concentration at 24 h: 24 h after last dose
Description: LC-MS/MS analyses. […] Samples were reconstituted in mobile phase.

[10] = HER2+ breast cancer patient, 10 mg/m^2 5 times a week
[11] = HER2+ breast cancer patient, 10 mg/m^2 once a week
[12] = HER2+ breast cancer patient, 10 mg/m^2 three times a week
[13] = pancreatic cancer patient, first tumor, 80 mg/m2 2×week
[14] = pancreatic cancer patient, left lung, 20 mg/m2 twice-week
[15] = pancreatic cancer patient, right hilum LN, 20 mg/m2 twice-week
[16] = pancreatic cancer patient, second tumor, 80 mg/m2 2×week

Q: With `CC(C)NCCCn1c(Sc2cc3c(cc2I)OCO3)nc2c(N)ncnc21` [PU-H71] as the molecule, how does the average tumor concentration [1, 10] read?
A: 0.81 µM

Q: What about the “tumor AUC0-336 h” value [1, 10] of the same molecule?
A: 189.8 μM-h

Q: What about the average tumor concentration [1, 11] of the same molecule?
A: 0.41 µM

Q: What about the “tumor AUC0-336 h” value [1, 11] of the same molecule?
A: 54 μM-h

Q: What about the average tumor concentration [1, 12] of the same molecule?
A: 0.71 µM

Q: What about the “tumor AUC0-336 h” value [1, 12] of the same molecule?
A: 140.8 μM-h

Q: And the average tumor concentration ([1]; HER2+ breast cancer patient, 10 mg/m^2 twice a week)?
A: 0.59 µM

Q: And the “tumor AUC0-336 h” value ([1]; HER2+ breast cancer patient, 10 mg/m^2 twice a week for two weeks)?
A: 103 μM-h

Q: And the average tumor concentration [1, 13]?
A: > 2.8 µM

Q: And the tumor exposure [1, 13]?
A: above 760 uM-h

Q: What about the average tumor concentration [1, 14] of the same molecule?
A: 0.71 µM

Q: And the “tumor AUC” value [1, 14]?
A: 190 μM-h

Q: What about the average tumor concentration [1, 15] of the same molecule?
A: 1.57 µM

Q: And the “tumor AUC” value [1, 15]?
A: 499 μM-h

Q: What about the average tumor concentration [1, 16] of the same molecule?
A: > 6.3 µM

Q: What about the tumor exposure [1, 16] of the same molecule?
A: > 1998 uM-h

Q: What about the “tumor AUC0-48 h” value ([1]; 10 mg/m^2, estimated from [^124I]-PU-H71 PET) of the same molecule?
A: 24.9 μM-h

Q: What about the “tumor AUC0-48 h” value ([1]; co-injection with 10 mg/m2 PU-H71) of the same molecule?
A: 22.3 μM-h

Q: What about the apoptotic cells ([2]; p-AKT increased by Dox) of the same molecule?
A: 50%

Q: And the apoptotic cells ([2]; without Dox)?
A: 35-40%

Q: And the kinase hits [3]?
A: Only SNARK (NUAK family SNF1-like kinase 2) (red dot on the kinase tree) appears as a potential low affinity kinase hit

Q: What about the “concentration required for about 50% of cells undergoing apoptosis” value ([4]; MDA-MB-468, 48 h) of the same molecule?
A: […]

Q: And the cells undergoing apoptosis ([4]; MDA-MB-468, >2 μM, 48 h)?
A: > 70%

Q: What about the “available HSP90 tumor sites occupied” value ([5]; 5 mg/kg) of the same molecule?
A: 12.1%

Q: What about the “available HSP90 tumor sites occupied” value ([5]; 25 mg/kg) of the same molecule?
A: 57.7%

Q: What about the “available HSP90 tumor sites occupied” value ([5]; 50 mg/kg) of the same molecule?
A: 88.7%

Q: What about the “available HSP90 tumor sites occupied” value ([5]; 75 mg/kg) of the same molecule?
A: 92.7%

Q: What about the “BMAX, maximum HSP90 per gram of tumor” value ([5]; 24 h post-injection, one gram of tumor) of the same molecule?
A: 160.7×10^−3 nmols

Q: And the “BMAX as HSP90 molecules per gram of tumor” value ([5]; one gram of tumor)?
A: 960×10^11 HSP90 molecules

Q: What about the “increase in caspase-3,7 activation” value ([6]; Kasumi-1 and SKNO-1, 24 h) of the same molecule?
A: two-fold

Q: And the “increase in caspase-3,7 activation” value ([6]; MOLM-13 and MO-91, 24 h)?
A: ten-fold

Q: And the cells undergoing apoptosis ([7]; HEL, 72 h)?
A: 30%

Q: And the cells undergoing apoptosis ([7]; MOLM-13 and MO-91, 72 h)?
A: ~100%

Q: And the cells undergoing apoptosis ([7]; SKNO-1 and Kasumi-1, 72 h)?
A: 50-60%

Q: What about the concentration at 24 h ([9]; 5 mg/kg 3×week) of the same molecule?
A: 0.52 ± 0.13 µM

Q: What about the concentration at 24 h ([9]; 75 mg/kg 1×week) of the same molecule?
A: 5.53 ± 0.26 µM

Q: And the concentration at 96 h ([9]; 75 mg/kg 1×week, 96 h after last dose)?
A: 3.09 ± 1.4 µM
